According to patent publication US10959986B2, “Inhibitors of indoleamine 2,3-dioxygenase and methods of their use” (BRISTOL-MYERS SQUIBB COMPANY, priority 2018, dated 2021):

Columns and labels:
human IDO1 = molecular target: T1, human IDO1 (Homo sapiens, UniProt P14902); assay: HEK293 cell-based indoleamine 2,3-dioxygenase (IDO) assay; details: HEK293 cells stably expressing human IDO1, 20 hours incubation; read-out: IDO1 HEK Human IC50
T1 construct: expressed in transfected cells
Method: Assessment of Inhibitor Activity in HEK293 Cell-Based Indoleamine 2,3-Dioxygenase (IDO) Assay.
HEK293 cells were transfected with a pCDNA-based mammalian expression vector harboring human IDO1 cDNA (NM 002164.2) by electroporation. They were cultured in medium (DMEM with 10% FBS) containing 1 mg/ml G418 for two weeks. Clones of HEK293 cells that stably expressed human IDO1 protein were selected and expanded for IDO inhibition assay.
The human IDO1/HEK293 cells were seeded at 10,000 cells per 50 μL per well with RPMI/phenol red free media contains 10% FBS in a 384-well black wall clear bottom tissue culture plate (Matrix Technologies LLC) 100 nL of certain concentration of compound was then added to each well using ECHO liquid handling systems. The cells were incubated for 20 hours in 37° C. incubator with 5% CO2.
The compound treatments were stopped by adding trichloroacetic acid (Sigma-Aldrich) to a final concentration at 0.2%. The cell plate was further incubated at 50° C. for 30 minute. The equal volume supernatant (20 μL) and 0.2% (w/v) Ehrlich reagent (4-dimethylaminobenzaldehyde, Sigma-Aldrich) in glacial acetic acid were mixed in a new clear bottom 384-well plate. This plate was then incubated at room temperature for 30 minute. The absorbance at 490 nm was measured on Envision plate reader.
Compound IC50 values were calculated using the counts of 500 nM of a reference standard treatment as one hundred percent inhibition, and counts of no compound but DMSO treatment as zero percent inhibition.

[1] = molecular target: T2, indoleamine 2,3-dioxygenase (IDO) (Homo sapiens, UniProt P14902); assay: HeLa cell-based indoleamine 2,3-dioxygenase (IDO) assay; details: HeLa cells with IFNγ 25 ng/mL, 48 hour incubation, kynurenine production; read-out: IDO Hela IC50 potency class (A < 50, B < 250, C < 2000)
T2 construct: media containing IFNγ (#285-IF/CF, R&D Systems) at a final concentration of 25 ng/mL; endogenous in cells; host or cells: HeLa (ATCC CCL-2), induced with IFN-gamma
T2 sequence (P14902 whole entry): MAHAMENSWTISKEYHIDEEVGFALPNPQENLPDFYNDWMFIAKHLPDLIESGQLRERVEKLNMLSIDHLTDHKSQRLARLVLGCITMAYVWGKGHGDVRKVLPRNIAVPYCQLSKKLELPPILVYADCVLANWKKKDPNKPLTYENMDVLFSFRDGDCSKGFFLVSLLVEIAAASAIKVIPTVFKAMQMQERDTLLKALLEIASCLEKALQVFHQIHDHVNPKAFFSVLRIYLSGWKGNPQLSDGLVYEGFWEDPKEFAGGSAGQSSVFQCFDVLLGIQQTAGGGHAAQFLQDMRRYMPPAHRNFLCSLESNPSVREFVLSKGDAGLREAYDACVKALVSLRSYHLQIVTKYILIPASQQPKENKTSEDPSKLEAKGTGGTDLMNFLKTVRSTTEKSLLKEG

T1 sequence (P14902 whole entry): as above

CC[C@@H](CC(=O)O)c1ccc([C@H]2CC[C@@H](c3ccccc3)CC2)c(NC(=O)Nc2ccc(C)cc2)c1 (single isomer, unassigned) [Example 1-1, 3-(4-(4-phenylcyclohexyl)-3-(3-(p-tolyl)ureido)phenyl)pentanoic acid]
IC50 (human IDO1): 499 nM

CC[C@@H](CC(=O)O)c1ccc([C@H]2CC[C@@H](c3ccccc3)CC2)c(NC(=O)Nc2ccc(C)cc2)c1 (single isomer, unassigned) [Example 1-2, 3-(4-(4-phenylcyclohexyl)-3-(3-(p-tolyl)ureido)phenyl)pentanoic acid]
IC50 (human IDO1): 1600 nM

CC[C@@H](CC(=O)O)c1ccc([C@H]2CC[C@@H](c3ccccc3)CC2)c(NC(=O)Nc2ccc(C)cc2)c1 (single isomer, unassigned) [Example 1-4, 3-(4-(4-phenylcyclohexyl)-3-(3-(p-tolyl)ureido)phenyl)pentanoic acid]
IC50 (human IDO1): 3 nM
IC50 [1]: < 50 nM

CC[C@@H](CC(=O)O)c1ccc([C@H]2CC[C@@H](c3ccccc3)CC2)c(NC(=O)Nc2ccc(C)cc2)c1 (single isomer, unassigned) [Example 2-3, 3-(4-(4-phenylcyclohexyl)-3-(3-(p-tolyl)ureido)phenyl)pentanoic acid]
IC50 (human IDO1): 1 nM
IC50 [1]: < 50 nM
